Source: patent publication US3989837A, “Pharmaceutical compositions” (Chinoin Gyogyszer-es Vegyeszeti Termekek Gyara RT, priority 1972, dated 1976)
Several values for one entry are separate records, joined by “and”; a condition that tells them apart may be missing. Identical values can stand only once.

Experiments:
[1] = test system: rats; assay: Toxicity on rats after oral administration, 3 months (Table 2'); assay type: in vivo, rat; settings: for Perished animals/total animals, Sum / Perished animals/total animals: male rats
Protocol: 10 animals were treated with the substance in question for 3 months. […] A dosage corresponding to 20 mg./kg. of Indomethacine was added during the first, that corresponding to 40 mg./kg. of Indomethacine during the second, and that corresponding to 60 mg./kg. of Indomethacine during the third month. The animals of the control group received suspending agent only.

[2] = test system: kaolin oedema; assay: Kaolin oedema test (Table 1); assay type: in vivo, rat; parameters: oedema, treated: unit not given here; settings: female rats
Protocol: The experiments were performed on female rats weighing 110-130 g. divided into groups of 10 animals. The rats were starved for 24 hours prior to the experiment. The test substance was administered orally, the controls obtained the suspending solution without the active ingredient. 1 hour following drug administration the animals were injected s.c. 0.1 ml. of a suspension of 5% kaolin into the foot pad. During the following period the inflammatory reaction is manifested by a swelling of the foot. The diameter of the foot of the treated and control animals was measured 2, 3.5 and 5 hours after s.c. injection of kaolin. The efficiency of the test compound was calculated from the difference of the diameter of the foot in the treated and control animals. Significance was calculated with Student's t test and the effect of the drug was expressed also as per cent.

[3] = test system: writhing; assay: Analgesic effect, acetic acid writhing (Table 3); assay type: in vivo, mouse; settings: male mice
Protocol: Male mice weighing 15-18 g. and starved for 16 hours were used for the experiments. The drug was given orally, the control mice obtained a drug-free suspension. After 2 and 4 hours (2^h and 4^h respectively) the animals were injected with […], acetic acid solution (0.1 ml. per mouse) intraperitoneally. Upon the effect of the injection the animals reacted in a few minutes with writhing. […] Comparison of the number of writhes in the control and the treated animals served as a basis of evaluation of drug effect. Significance was calculated by Student's t test, and efficiency of the drug was expressed as per cent. Each experiment was performed on a group of 12-16 animals.

[4] = test system: mice; assay: Toxicity on mice by oral administration, once daily for 7 days (Table 4); assay type: in vivo; settings: male mice
Protocol: The experiments were performed on unstarved male mice of […]. body-weight.
The compound was administered in the form of 1% suspension stabilized with methylcellulose. […] The animals obtained the drug once daily over a period of 7 dyas, i.e. 168 hours. The number of deaths was registered each day. LD50 values were calculated according to Litchfield and Wilcoxon.

[5] = test system: granuloma formation; assay: Cotton pellet granuloma (Table 2); assay type: in vivo, rat; settings: male rats, 7 days
Protocol: The experiments were performed on male rats weighing 140-160 g. In ether anaesthesia a […]. cotton pellet was placed in each of two subcutaneous pockets in the dorsal region of the animal. The drug was administered orally during a period of 7 days. The controls received a drugfree suspension. The doses seen in the Table were administered in two portions, in the morning and in the afternoon, respectively. On the 8th day the animals were killed and the pellets were dissected. After removal of fat and extraneous tissue, the pellets were dried for 5 hours at 50° C and weighed. The weight of the cotton pellet before implantation was subtracted from the weight of the dried, dissected pellet and drug efficiency was calculated from the obtained difference. Significance was calculated with Student's t test and drug effect was expressed as per cent.

[6] = oral 13.7 mg./kg., 2 h after kaolin
[7] = oral 13.7 mg./kg., 3.5 h after kaolin
[8] = oral 13.7 mg./kg., 5 h after kaolin
[9] = oral 34 mg./kg., 2 h after kaolin
[10] = oral 34 mg./kg., 3.5 h after kaolin
[11] = oral 34 mg./kg., 5 h after kaolin
[12] = oral 51 mg./kg., 2 h after kaolin
[13] = oral 51 mg./kg., 3.5 h after kaolin
[14] = oral 51 mg./kg., 5 h after kaolin

SMILES: COc1ccc2c(c1)c(CC(=O)OCC(Cl)(Cl)Cl)c(C)n2C(=O)c1ccc(Cl)cc1 [Example 5, 1-(p-chlorobenzoyl)-2-methyl-5-methoxy-indol-3-yl-acetic-acid trichloroethyl ester]
- Perished animals/total animals, Sum ([1]; oral 27.3 mg./kg., 1st month): 1/10
- Perished animals/total animals ([1]; oral 54.7 mg./kg., 2nd month): 1/9
- Perished animals/total animals, Sum ([1]; oral 54.7 mg./kg., through 2nd month): 2/10
- Perished animals/total animals ([1]; oral 80.0 mg./kg., 3rd month): 2/8
- Perished animals/total animals, Sum ([1]; oral 80.0 mg./kg., through 3rd month): 4/10
- toxicity compared with Indomethacine ([1]; rats (and mice), oral): far less toxic than Indomethacine not only on mice but also on rats
- perishment during the observation period compared with Indomethacine ([1]; rats, oral, observation period): the same as for Indomethacine
- Inhibition of kaolin oedema [2, 6]: 9.8% and 10.6%
- oedema, treated [2, 6]: 2.39±0.36 and 2.28±0.50
- Inhibition of kaolin oedema [2, 7]: 15.1% and 19.0%
- oedema, treated [2, 7]: 2.54±0.53 and 2.35±0.54
- Inhibition of kaolin oedema [2, 8]: 22.2% and 15.1%
- oedema, treated [2, 8]: 2.56±0.53 and 2.77±0.58
- Inhibition of kaolin oedema [2, 9]: 11.0% and 13.6%
- oedema, treated [2, 9]: 2.27±0.30 and 2.46±0.49
- Inhibition of kaolin oedema [2, 10]: 22.1%
- oedema, treated [2, 10]: 2.26±0.30 and 2.47±0.41
- Inhibition of kaolin oedema [2, 11]: 24.7% and 29.9%
- oedema, treated [2, 11]: 2.48±0.36 and 2.72±0.62
- Inhibition of kaolin oedema [2, 12]: 19.5%
- oedema, treated [2, 12]: 1.86±0.32
- Inhibition of kaolin oedema [2, 13]: 24.6%
- oedema, treated [2, 13]: 2.05±0.30
- Inhibition of kaolin oedema [2, 14]: 26.4%
- oedema, treated [2, 14]: 2.23±0.28
- Analgesic effect ([3]; oral 5 mg./kg., 2 h): 29.0% and 20.7%
- number of writhes, treated ([3]; oral 5 mg./kg., 2 h): 28.0±9.5 and 41.1±12.2
- Analgesic effect ([3]; oral 5 mg./kg., 4 h): 18.6% and 20.1%
- number of writhes, treated ([3]; oral 5 mg./kg., 4 h): 32.1±12.4 and 41.4±12.6
- Analgesic effect ([3]; oral 17 mg./kg., 2 h): 60.8% and 51.4%
- Analgesic effect ([3]; oral 17 mg./kg., 4 h): 56.7% and 51.0%
- number of writhes, treated ([3]; oral 17 mg./kg., 4 h): 13.7±10.7 and 20.6±12.3
- Number of deaths/number of treated animals ([4]; oral 1000 mg/kg, 24 h): 0/10
- Number of deaths/number of treated animals ([4]; oral 1000 mg/kg, 48 h): 0/10
- Number of deaths/number of treated animals ([4]; oral 1000 mg/kg, 72 h): 0/10
- Number of deaths/number of treated animals ([4]; oral 1000 mg/kg, 96 h): 0/10
- Number of deaths/number of treated animals ([4]; oral 1000 mg/kg, 120 h): 0/10
- Number of deaths/number of treated animals ([4]; oral 1000 mg/kg, 144 h): 0/10
- Number of deaths/number of treated animals ([4]; oral 1000 mg/kg, 168 h): 0/10
- Number of deaths/number of treated animals ([4]; oral 1500 mg/kg, 24 h): 0/10
- Number of deaths/number of treated animals ([4]; oral 1500 mg/kg, 48 h): 0/10
- Number of deaths/number of treated animals ([4]; oral 1500 mg/kg, 72 h): 0/10
- Number of deaths/number of treated animals ([4]; oral 1500 mg/kg, 96 h): 0/10
- Number of deaths/number of treated animals ([4]; oral 1500 mg/kg, 120 h): 0/10
- Number of deaths/number of treated animals ([4]; oral 1500 mg/kg, 144 h): 0/10
- Number of deaths/number of treated animals ([4]; oral 1500 mg/kg, 168 h): 0/10
- Number of deaths/number of treated animals ([4]; oral 2000 mg/kg, 24 h): 0/10
- Number of deaths/number of treated animals ([4]; oral 2000 mg/kg, 48 h): 0/10
- Number of deaths/number of treated animals ([4]; oral 2000 mg/kg, 72 h): 2/10
- Number of deaths/number of treated animals ([4]; oral 2000 mg/kg, 96 h): 2/10
- Number of deaths/number of treated animals ([4]; oral 2000 mg/kg, 120 h): 4/10
- Number of deaths/number of treated animals ([4]; oral 2000 mg/kg, 144 h): 6/10
- Number of deaths/number of treated animals ([4]; oral 2000 mg/kg, 168 h): 6/10
- Number of deaths/number of treated animals ([4]; oral 2500 mg/kg, 24 h): 0/10
- Number of deaths/number of treated animals ([4]; oral 2500 mg/kg, 48 h): 1/10
- Number of deaths/number of treated animals ([4]; oral 2500 mg/kg, 72 h): 1/10
- Number of deaths/number of treated animals ([4]; oral 2500 mg/kg, 96 h): 3/10
- Number of deaths/number of treated animals ([4]; oral 2500 mg/kg, 120 h): 4/10
- Number of deaths/number of treated animals ([4]; oral 2500 mg/kg, 144 h): 6/10
- Number of deaths/number of treated animals ([4]; oral 2500 mg/kg, 168 h): 7/10
- Number of deaths/number of treated animals ([4]; oral 3000 mg/kg, 24 h): 0/10
- Number of deaths/number of treated animals ([4]; oral 3000 mg/kg, 48 h): 1/10
- Number of deaths/number of treated animals ([4]; oral 3000 mg/kg, 72 h): 3/10
- Number of deaths/number of treated animals ([4]; oral 3000 mg/kg, 96 h): 4/10
- Number of deaths/number of treated animals ([4]; oral 3000 mg/kg, 120 h): 5/10
- Number of deaths/number of treated animals ([4]; oral 3000 mg/kg, 144 h): 7/10
- Number of deaths/number of treated animals ([4]; oral 3000 mg/kg, 168 h): 7/10
- Inhibition of granuloma formation ([5]; oral 5.5 mg./kg.): 19.5%
- granuloma tissue, treated ([5]; oral 5.5 mg./kg.): 56.7±11.1
- Inhibition of granuloma formation ([5]; oral 11 mg./kg.): 24.8%
- granuloma tissue, treated ([5]; oral 11 mg./kg.): 52.0±17.8
